The results in this text go back to patent publication US7341750B2, “Compound isolated from Ginkgo biloba bark, isolation method thereof and antiplatelet composition containing the same” (Candleflower Co., Ltd., priority 2006, dated 2008).

SMILES strings stand for the structures. Read-outs that look alike come from different tables or passages of the source.

Common to all, as to format: cell-based
In experiment [1] the test system is collagen-stimulated platelet aggregation. Description: Collagen-stimulated platelet aggregation in concentrated human platelet-rich plasma (aggregometer). The conditions noted are these: human concentrated PRP; for IC50: aggregation factor collagen 10 μg/ml, 37° C., read-out: IC50 antiplatelet aggregation activity, Collagen. How it is done:
To measure the activity against collagen-stimulated platelet aggregation of the novel compound identified from the Ginkgo biloba bark, concentrated human platelet-rich-plasma (PRP) was first prepared. The PRP used in the present invention was obtained by collecting blood from volunteers in Hallym University Medical Center, centrifuging the blood at 1,000 rpm and room temperature for 10 minutes to collect pure supernatant PRP and centrifuging the supernatant PRP at 3,000 rpm and room temperature for 10 minutes. The obtained PRP was separated into platelet-poor plasma (PPP) and platelets (PLTs). Then, concentrated PRP was prepared in the following manner. That is, platelets (PLTs) were suspended in a suitable amount of the supernatant PPP and measured for absorbance at 660 nm using a UV/visible spectrophotometer. Based on the measured absorbance, the suspension was further diluted with an excess of PPP to prepare concentrated PRP containing 5×10^8 platelets/ml. Herein, an OD value of 1.1 at 660 nm means 1×10^8 PLTs. A washing buffer used in the present invention was a pH 6.5 buffer containing 129 mM NaCl, 10.9 mM sodium citrate dihydrate, 8.9 mM NaHCO3, 1 mg/ml glucose, 10 mM tris-hydroxymethylaminomethane, 2.8 mM KCl, 0.8 mM KH2PO4 and 2 mM EDTA. Also, a suspension buffer used in this test example was a pH 6.9 buffer, which was the same as said washing buffer, except that it contained no EDTA. The platelet aggregation inhibitory effect of the novel compound was examined using the prepared concentrated PRP in the following manner. First, the concentrated PRP was used to make 500 μl of an in vitro reaction system. For use as a control group, the concentrated PRP was stabilized at 37° C. for 3 minutes and treated with collagen (Chrono-LogCo.) as a stimulating agent at a concentration of 10 μg/ml, and the aggregation of platelets in the reaction system was induced for 5 minutes. Meanwhile, the same reaction system as described above was treated with the novel compound, was allowed to react with the novel compound for 3 minutes, was stimulated with collagen for 6 minutes according to the same method as described above so as to induce platelet aggregation, and then was measured for aggregated platelets. The aggregation of platelets was measured with a change in light transmission using an aggregometer (Chrono-Log Co.) at 37° C. The measurement results are shown in Table 1 below and FIGS. 6, 7 and 8. Table 1 summarizes the antiplatelet aggregation activities of aspirin, the novel compound and ginkgolide A and B against platelet aggregation factors, including ADP, collagen and arachidonic acid. […] In the case of the group treated with the novel compound, when arachidonic acid was used as the aggregation factor, the aggregation of platelets occurred only upon stimulation with 1,000 μM (i.e., 1 mM) or higher concentration of arachidonic acid.

The test system of experiment [2] is ADP-induced platelet aggregation. Description: ADP-stimulated platelet aggregation in concentrated human platelet-rich plasma (aggregometer). The conditions noted are these: aggregation factor ADP, human concentrated PRP, —: no effect. As to the method:
(§1) To measure the activity against collagen-stimulated platelet aggregation of the novel compound identified from the Ginkgo biloba bark, concentrated human platelet-rich-plasma (PRP) was first prepared. The PRP used in the present invention was obtained by collecting blood from volunteers in Hallym University Medical Center, centrifuging the blood at 1,000 rpm and room temperature for 10 minutes to collect pure supernatant PRP and centrifuging the supernatant PRP at 3,000 rpm and room temperature for 10 minutes. The obtained PRP was separated into platelet-poor plasma (PPP) and platelets (PLTs). Then, concentrated PRP was prepared in the following manner. That is, platelets (PLTs) were suspended in a suitable amount of the supernatant PPP and measured for absorbance at 660 nm using a UV/visible spectrophotometer. Based on the measured absorbance, the suspension was further diluted with an excess of PPP to prepare concentrated PRP containing 5×10^8 platelets/ml. Herein, an OD value of 1.1 at 660 nm means 1×10^8 PLTs. A washing buffer used in the present invention was a pH 6.5 buffer containing 129 mM NaCl, 10.9 mM sodium citrate dihydrate, 8.9 mM NaHCO3, 1 mg/ml glucose, 10 mM tris-hydroxymethylaminomethane, 2.8 mM KCl, 0.8 mM KH2PO4 and 2 mM EDTA. Also, a suspension buffer used in this test example was a pH 6.9 buffer, which was the same as said washing buffer, except that it contained no EDTA. The platelet aggregation inhibitory effect of the novel compound was examined using the prepared concentrated PRP in the following manner. First, the concentrated PRP was used to make 500 μl of an in vitro reaction system. For use as a control group, the concentrated PRP was stabilized at 37° C. for 3 minutes and treated with collagen (Chrono-LogCo.) as a stimulating agent at a concentration of 10 μg/ml, and the aggregation of platelets in the reaction system was induced for 5 minutes. Meanwhile, the same reaction system as described above was treated with the novel compound, was allowed to react with the novel compound for 3 minutes, was stimulated with collagen for 6 minutes according to the same method as described above so as to induce platelet aggregation, and then was measured for aggregated platelets. The aggregation of platelets was measured with a change in light transmission using an aggregometer (Chrono-Log Co.) at 37° C. The measurement results are shown in Table 1 below and FIGS. 6, 7 and 8. Table 1 summarizes the antiplatelet aggregation activities of aspirin, the novel compound and ginkgolide A and B against platelet aggregation factors, including ADP, collagen and arachidonic acid. […]

Experiment [3] concerns arachidonic acid-stimulated platelet aggregation. Description: Arachidonic acid-stimulated platelet aggregation in concentrated human platelet-rich plasma (aggregometer). The conditions noted are these: for arachidonic acid-stimulated platelet aggregation in treated groups: groups treated with the compound. How it is done: as §1
The mark [4] stands for this setting: arachidonic acid as aggregation factor.

The term IC50 denotes the point on the concentration scale where inhibition reaches its midpoint.

Turning to `CC(=O)Oc1ccccc1C(=O)O` [Aspirin], the IC50 in experiment [1] (Platelet) turned out to be 203 µM; in experiment [2] (Platelet, read-out: IC50 antiplatelet aggregation activity, ADP) it was 316 µM. Also, the “inhibitory activity on collagen-stimulated platelet aggregation (FIGS. 6-8)” value (from here on “inhibitory activity”) in experiment [1] is recorded as “inhibited platelet aggregation in a concentration-dependent manner”.

Regarding `C[C@@H]1C(=O)O[C@H]2C[C@@]34[C@H]5C[C@@H](C(C)(C)C)[C@]36[C@@H](OC(=O)[C@@H]6O)O[C@@]4(C(=O)O5)[C@]21O` [Gingkolide A], the “arachidonic acid-stimulated platelet aggregation in treated groups” value in experiment [3] (setting [4]) is on record as “did not occur”. In addition, in experiment [1], the IC50 stood at 482 µM and the “inhibitory activity” value is recorded as “inhibited collagen-stimulated platelet aggregation in a concentration-dependent manner”. Moreover, the “IC50 antiplatelet aggregation activity, ADP” value in experiment [2] was “did not show an effect”.

For `C[C@@H]1C(=O)O[C@H]2[C@@H](O)[C@@]34[C@H]5C[C@@H](C(C)(C)C)[C@]36[C@@H](OC(=O)[C@@H]6O)O[C@@]4(C(=O)O5)[C@@]12O` [Gingkolide B], the “arachidonic acid-stimulated platelet aggregation in treated groups” value in experiment [3] (setting [4]) is on record as “did not occur”. In experiment [1], the IC50 turned out to be 480 µM and the “inhibitory activity” value was “inhibited collagen-stimulated platelet aggregation in a concentration-dependent manner”. Also, the “IC50 antiplatelet aggregation activity, ADP” value in experiment [2] was “did not show an effect”.

As to `COc1cc(-c2oc3cc(OC)c(CCCO)cc3c2C=O)ccc1O` [Novel compound, 5-(3-hydroxyprophyl)-6-methoxy-2-(3′-methoxy-4′-hydroxyphenyl)-3-benzo[b]furancarbaldehyde], the IC50 was more than 1000 µM in experiment [3] (Platelet, aggregation factor arachidonic acid, human concentrated PRP, —: no effect, read-out: IC50 antiplatelet aggregation activity, AA) and 680 µM in experiment [1] (Platelet). Moreover, in experiment [3] (arachidonic acid as aggregation factor, group treated with the compound), the “concentration of arachidonic acid at which aggregation of platelets occurred in the treated group” value was ≥ 1,000 μM. The “inhibitory activity” value in experiment [1] is on record as “inhibited collagen-stimulated platelet aggregation in a concentration-dependent manner”. The “IC50 antiplatelet aggregation activity, ADP” value in experiment [2] is reported as “did not show an effect”.
